Data: US5837728A, “9-cis retinoic acid esters and amides and uses thereof” (priority 1995, dated 1998)
Entries after “also recorded” stand apart in the source; their conditions may differ. Like-named read-outs stand apart in the source and are kept apart here.

Columns and labels:
[1] = test system: pseudocomedone (utriculus) of the rhino mouse; test: Topical rhino mouse pseudocomedone (utriculus) reduction assay; type: in vivo; design: Utriculus reduction (Table 1) / Utriculus reduction (Table 3): key to the marks not given beside the values; conditions: for Utriculus reduction (Table 1): 0.1% concentration, once daily 5 days/week for two weeks; for Utriculus reduction (Table 3): concentration 0.1 (unit not given); for Utriculus Reduction (Table 7): two weeks
Method: A topical assay to test for pseudocomedone (utriculus) reduction in the rhino mouse is conducted.
Each test compound and a vehicle control is applied topically to the dorsal trunk of the rhino mouse. The utriculus diameters are measured with a ocular micrometer. […] Kligman, et al., The Effect on Rhino Mouse Skin of Agents which Influence Keratinization and Exfoliation, J. Invest. Derm. […] Van Scott, Experimental Animal Integumental Models for Screening Potential Dermatologic Drugs, In Pharmacology of the Skin, eds. […] Mann, Hair Loss and Cyst Formation in Hairless and Rhino Mutant Mice, Anat. Rec. […] Mezick, et al., Topical and Systemic Effects of Retinoids on Horn-Filled Utriculus Size in the Rhino Mouse. A Model to Quantify Antikeratinizing Effects of Retinoids, J. Invest. Derm. […] Mezick, et al., Anti-Acne Activity of Retinoids in the Rhino Mouse, In Models in Dermatology, eds.
(§1) The dorsal trunk of the rhino mouse is the test site. Each test compound is dissolved in alcohol:propylene glycol (70:30, v:v) or other suitable vehicle and topically applied (0.1 ml) to the dorsal trunk once daily, five consecutive days/week for two weeks. Also, administration may be oral (p.o.) in a suitable vehicle. Following treatment, the animals are sacrificed by cervical dislocation. The treated dorsal trunk skin is removed from the animal and placed into 0.5% acetic acid for up to 18 hours at approximately 4° C. After this, the epidermis with the acne cysts is separated from the underlying dermis. The sheets of epidermis are processed by routine methods to permanent whole mounts for microscopic examination. Also, full-thickness samples may be taken, stained (H&E), and examined by light microscopy.
The utriculus diameters are measured with an ocular micrometer to compare effects of test compounds to vehicle control and/or reference compound on cyst reduction. Light microscopy is used to determine effects on cell differentiation.
Another topical assay is conducted following the procedure described above.
Each test compound and a vehicle control was applied topically to the dorsal trunk of the rhino mouse. The utriculus diameters are measured with a ocular micrometer. […] Kligman, et al., J. Invest. […] Van Scott, Pharmacology of the Skin, eds. […] Mann, Anat. […] Mezick, et al, J. Invest. […] Mezick et al., Models in Dermatology, eds.
as §1, with “(70:30,v:v)” for “(70:30, v:v)”, “weeks.” for “weeks. Also, administration may be oral (p.o.) in a suitable vehicle.”, “"acne cysts"” for “acne cysts”, “are” for “may be”, “(H&E)” for “(H&E),”, “microscope.” for “microscopy.”

skin of rabbits = test: Topical assay for primary acute dermal irritation; type: in vivo
Method: Twelve healthy, young, adult, female New Zealand White rabbits (Orycetolagus cuniculus), are used in the study. […] At the start of the study, the animals are in the weight range between 2.0 and 3.0 kilograms, and are approximately 11 weeks of age. Animals selected for the test are not subjected to any previous experimental procedures, and their skin is free from irritation, trauma and disease.
Six animals are treated in this manner.
The application sites are prepared by clipping the skin of the trunk free of hair approximately 24 hours before application of the dose. One application site on each animal is abraded by making minor incisions through the stratum corneum, but not sufficient to disturb the derma (that is, not sufficiently deep to produce bleeding). The second application site is intact skin.
The dose is applied to a small area (approximately 6 cm^2) of skin and covered with a gauze patch which is held in place with Vetrap bandaging. The patches are applied to one intact site and one abraded site per animal. The test substance is kept in contact with the skin for 24 hours. The skin is not rinsed following the 24 hour exposure period.
Animals are observed for signs of erythma and edema 24 and 72 hours after application of the test material. Observations are scored according to the Draize Scale for Scoring Skin Reactions as in Draize, J. H., Dermal Toxicity, Appraisal of the Safety of Chemicals in Foods, Drugs and Cosmetics Dermal Toxicity, pp. 46-59, Association of Food and Drug Officials of the U.S., Topeka, Kans., 1965. […] Animals are weighed at the beginning and at the end of the observation period.

[2] = test system: skin (inner forearm, cheek); test: Topical assay for comparative dermal irritation in human subjects; type: in vivo, human (patients); conditions: for Irritant reactions, inner forearm: first test, 0.025% solution; for Irritant reactions, inner forearm / Irritant reaction, inner forearm: twice daily for ten days; for Irritant reaction, inner forearm: second test, one subject of four reacted; for Irritant reaction, inner forearm / Irritation of the cheeks: 0.075% solution; for Irritation of the cheeks: third test, twice daily, six days
Method: 2-(9-cis-retinoyloxy)-4-methoxyacetophenone is evaluated in a study of its potential to produce dermal irritation. Comparisons are made of tretinoin, isotretinoin, 2-(9-cis-retinoyloxy)-4-methoxyacetophenone, and the vehicle solution.
In the first test, four solutions are used. The control consists of vehicle solution, namely a solution of 60% by volume ethanol and 40% by volume polyethylene glycol. The other three solutions are 0.025% solutions of tretinoin, isotretinoin, or 2-(9-cis-retinoyloxy)-4-methoxyacetophenone in 60% by volume ethanol and 40% by volume polyethylene glycol. Four patients paint two saturated cotton swabs of each of the four solutions on four different areas of the inner forearm, twice daily for ten days.
In the second test, four other solutions are used. The control consists of vehicle solution, namely a solution of 90% by volume ethanol and 10% by volume polyethylene glycol. The other three solutions are 0.075% solutions of tretinoin, isotretinoin, or 2-(9-cis-retinoyloxy)-4-methoxyacetophenonein 90% by volume ethanol and 10% by volume polyethylene glycol. Four patients paint two saturated cotton swabs of each of the four solutions on four different areas of the inner forearm, twice daily for ten days. Only one subject experiences an irritant reaction. […] By day nine, both areas are still reacting, the tretinoin area more intensely than the isotretinoin area. There is no reaction in either the 2-(9-cis-retinoyloxy)-4-methoxyacetophenone or the control areas.
In the third test, three solutions are used. The three solutions are 0.075% solutions of tretinoin, isotretinoin, or 2-(9-cis-retinoyloxy)-4-methoxyacetophenone in 90% by volume ethanol and 10% by volume polyethylene glycol. Four patients paint two saturated cotton swabs of the 2-(9-cis-retinoyloxy)-4-methoxyacetophenone solution twice daily on one cheek of their faces. To the other cheek they apply two saturated cotton swabs of either tretinoin or isotretinoin.
The tests are carried out in double-blind fashion, that is, neither the subjects nor the investigator know the contents of the solutions during the study.
Clinical assessments are made daily of the subjects cheeks. All subjects develop irritant reactions by the third or fourth day of the study.

[3] = test system: sun-damaged, wrinkled, aged skin of the face and forearms; test: Topical assay for antiaging and antiactinic effects (dermatoheliosis); type: in vivo, human (patients)
Description: Four subjects aged 49 to 73, three females and one male having significant,easily observe, sun-damaged, wrinkled, aged skin of the face and forearms are subjects of a study to determine the effect of topical application of 2-(9-cis-retinoyloxy)-4-methoxyacetophenone in the treatment of dermatoheliosis. The three females had moderately severe sun-damaged skin and wrinkles of the forearms, hands and face. The one person has extremely severe sun damage in these areas as well as multiple actinic keratoses. The four subjects are provided with and applied to their entire faces (omitting the eyelids) and dorsal surface of the right forearm, once daily for 12 to 16 weeks, 0.1% concentration of 2-(9-cis-retinoyloxy)-4-methoxyacetophenone in a hydrophilic cream vehicle. The left forearm of each patient is treated daily with a non-medicated moisturizer of the patients choice.
All subjects are evaluated every 4 weeks through the study for redness, peeling, skin surface texture and wrinkling. Biopsies (using a 4 mm punch) are taken from the dorsal surface of the right upper forearm at the beginning of the study and again from the same area at the end of the study. The biopsies are stained with H & E, Alcian Blue and collagen/elastic stains and compared by a qualified dematopathologist.

[4] = test system: corneal epithelial wounds; conditions: cited from earlier work
[5] = test system: epidermal growth factor cell surface receptors; conditions: in vitro; cited from earlier work
[6] = 0.1% cream, once daily for 12 to 16 weeks

| Compound | Utriculus reduction (Table 1) [1] | Utriculus reduction (Table 3) [1] | Signs of erythema or edema formation (Draize scale) (skin of rabbits; 0.5 ml topical, intact and abraded skin, 24 and 72 hours) | Body weight change (skin of rabbits; beginning vs end of observation period, all 12 animals) | Overt signs of toxicity (skin of rabbits; rabbit, in vivo) | Irritant reactions, inner forearm [2] | Irritant reaction, inner forearm [2] | Irritation of the cheeks [2] | Facial improvement of dermatoheliosis [3, 6] | Irritation during antiaging study [3, 6] | Forearm improvement in surface texture, dryness and fine wrinkling ([3]; 0.1% cream, once daily, within two months) | Biopsy differences before and after treatment ([3]; dorsal right forearm, 4 mm punch) | Utriculus Reduction (Table 7) ([1]; dose 0.0005%) | Utriculus Reduction (Table 7) ([1]; dose 0.005%) | Utriculus Reduction (Table 7) ([1]; dose 0.05%) | Increase in the healing rate ([4]; 0.1% tretinoin three times per day) [%] | Increase in the healing rate ([4]; five times a day) [%] | Effect on epidermal growth factor activity and receptor binding [5] |
| --- | --- | --- | --- | --- | --- | --- | --- | --- | --- | --- | --- | --- | --- | --- | --- | --- | --- | --- |
| COc1ccc(C(=O)COC(=O)/C=C(C)/C=C/C=C(C)\C=C\C2=C(C)CCCC2(C)C)cc1 [Compound 2, 2-(9-cis-retinoyloxy)-4'-methoxyacetophenone] | +++ | +++ | no signs of erythema or edema formation are evident in any of the 12 test animals | All 12 animals exhibited a gain in body weight | No overt signs of toxicity are evident | No irritant reactions occur | no reaction | slightly irritated or not irritated at all | all show an improvement in their dermatoheliosis; also recorded: Two of the four patients show very significant improvement in facial smoothness, dryness and fine wrinkling; also recorded: Moderate improvement of these parameters are observed in the other two patients | No significant irritation is experienced by any patient; also recorded: Very slight pinkness and a feeling of slight tightness in facial skin develops in two patients | three show improvement in surface texture (smoothness), surface dryness and fine wrinkling within two months | no significant differences in before treatment and after treatment biopsies |  |  |  |  |  |  |
| CC1=C(/C=C/C(C)=C/C=C/C(C)=C/C(=O)O)C(C)(C)CCC1 [all-trans-retinoic acid, reference compound] | ++ | ++ |  |  |  | No irritant reactions occur | On day two, the tretinoin area begins reacting with redness and peeling | reactions which are so intense with redness and peeling that all subjects discontinue application on or before the sixth day |  |  |  |  | 34.1 | 49.9 | 72.8 | 21 | 35 | increases the mitogenic activity of epidermal growth factor and its binding to its cell surface receptors in vitro |
